The record followed here is patent publication US7651978B2, “Selective herbicides based on a substituted phenylsulphonylaminocarbonyl-triazolinone” (Arysta LifeScience North America, LLC, priority 1998, dated 2010).

Data set [1] concerns wheat. Put plainly: Post-emergence tests/outdoors (Example C, Canada), crop damage. The format is in vivo, summer wheat. To be noted: outdoors, 70 WP, 9 tests, 1 to 8 weeks after treatment. The procedure: (§1) Post-Emergence Tests/Outdoors In addition to the comparative compounds (B) and (D), the sodium salt of the compound of the formula (I) was tested under outdoor conditions in the main cultivation areas of summer wheat in Canada against economically important weeds. The small-plot experiments were carried out on cultivated land under agricultural use. Areas with particularly extensive weed growth were chosen preferably. The active compounds were applied across the area by the spray method, with an average droplet size. To produce a useful preparation of active compound, the active compounds were formulated as 70 WP (70% w/w water-dispersible powder) and applied with customary amounts of water. Wetting of the plants was improved by addition of a surface-active substance (SAS) in the concentrations recommended by the respective manufacturer. To assess the crop compatibility, from 1 to 8 weeks after the treatment, plant growth inhibitions or […] of the leaf area were assessed in % damage in comparison to the development of the untreated control. At different intervals after the treatment, the herbicidal activity was assessed as % reduction in comparison to the untreated control, based on the weed development. The figures denote: • 0%=no damage of the crops or no herbicidal effect, • 100%=total destruction of the crops or the weeds.

The subject of data set [2] is weeds, such as Agropyron, Alopecurus, Avena, Bromus, Lolium, Setaria and Veronica. Put plainly: Post-emergence test/greenhouse, summary over weeds. To be noted: cf. Table B1. The format is in vivo. The procedure: Post-Emergence Test/Greenhouse [table] To produce a suitable preparation of active compound, 1 part by weight of active compound is mixed with the stated amount of solvent, the stated amount of emulsifier is added and the concentrate is diluted with water to the desired concentration. Test plants which have a height of 5-15 cm are sprayed with the preparation of active compound such that the particular amounts of active compound desired are applied per unit area. The concentration of the spray liquor is chosen so that the particular amounts of active compound desired are applied in 500 ml of water/ha. After three weeks, the degree of damage to the plants is assessed in % damage in comparison to the development of the untreated control. […] A considerable superiority of (I)-Na-salt (at 125 g/ha) over the comparative compounds (G) and (H) (in each case at 250 g/ha!) is shown in Table B2.

In another data set the test system is Avena. Put plainly: Pre-emergence test/greenhouse. Type of data set: in vivo. To be noted: 504 h, 30 g of ai./ha, after three weeks, read-out: degree of damage, Avena. The procedure: (§2) Pre-Emergence Test/Greenhouse Solvent: 5 parts by weight of acetone Emulsifier: 1 part by weight of alkylaryl polyglycol ether To produce a suitable preparation of active compound, 1 part by weight of active compound is mixed with the stated amount of solvent, the stated amount of emulsifier is added and the concentrate is diluted with water to the desired concentration. Seeds of the test plants are sown in normal soil. After about 24 hours, the soil is sprayed with the preparation of active compound such that the particular amount of active compound desired is applied per unit area. The concentration of the spray liquor is chosen so that the particular amount of active compound desired is applied in 500 ml of water per hectare. After three weeks, the degree of damage to the plants is assessed in % damage in comparison to the development of the untreated control. The figures denote: • 0%=no effect (like untreated control) • 100%=total destruction

Data set [3] has as its system Wheat. The experiment in a line: Pre-emergence test/greenhouse. Particulars: pre-emergence; for degree of damage, Wheat: 30 g of ai./ha, after three weeks, 0%=no effect, 100%=total destruction. Type of data set: in vivo. The procedure: as §2
The next data set deals with Polygonum. The experiment in a line: Pre-emergence test/greenhouse. The format is in vivo. To be noted: 30 g of ai./ha, after three weeks. The procedure:
as §2

The subject of data set [4] is Alopecurus. The experiment in a line: Pre-emergence test/greenhouse. The format is in vivo. Particulars: 504 h, 30 g of ai./ha, after three weeks, read-out: degree of damage, Alopecurus. The procedure: as §2
A further data set relates to Lolium. Put plainly: Post-emergence test/greenhouse. Particulars: 60 g ai./ha, after three weeks. Type of data set: in vivo. The procedure:
(§3) Post-Emergence Test/Greenhouse [table] To produce a suitable preparation of active compound, 1 part by weight of active compound is mixed with the stated amount of solvent, the stated amount of emulsifier is added and the concentrate is diluted with water to the desired concentration. Test plants which have a height of 5-15 cm are sprayed with the preparation of active compound such that the particular amounts of active compound desired are applied per unit area. The concentration of the spray liquor is chosen so that the particular amounts of active compound desired are applied in 500 ml of water/ha. After three weeks, the degree of damage to the plants is assessed in % damage in comparison to the development of the untreated control. The figures denote: • 0%=no effect (like untreated control) • 100%=total destruction

The test system of data set [5] is Wheat. The experiment in a line: Post-emergence test/greenhouse. Type of data set: in vivo. To be noted: post-emergence, 60 g ai./ha, after three weeks; 0%=no effect, 100%=total destruction. The procedure:
as §3

The test system of the next data set is Veronica. Put plainly: Post-emergence test/greenhouse. The format is in vivo. To be noted: 60 g ai./ha, after three weeks. The procedure: as §3
For data set [6], the system named is Alopecurus. Put plainly: Post-emergence test/greenhouse. The format is in vivo. Particulars: 504 h, 60 g ai./ha, after three weeks, read-out: degree of damage, Alopecurus. The procedure: as §3
The test system of the next data set is Avena fatua. The experiment in a line: Post-emergence tests/outdoors (Example C, Canada). The format is in vivo. Particulars: outdoors, 70 WP, 6 tests. The procedure:
as §1

For a further data set, the system named is Fallopia convolvulus. Put plainly: Post-emergence tests/outdoors (Example C, Canada). The format is in vivo. Particulars: outdoors, 70 WP, 5 tests. The procedure: as §1
The next data set concerns Thlaspi arvense. The experiment in a line: Post-emergence tests/outdoors (Example C, Canada). Type of data set: in vivo. Particulars: outdoors, 70 WP, 3 tests. The procedure:
as §1

For the next data set, the system named is Sinapis arvensis. The experiment in a line: Post-emergence tests/outdoors (Example C, Canada). To be noted: outdoors, 70 WP, 5 tests. The format is in vivo. The procedure: as §1
For a further data set, the system named is Setaria viridis. Put plainly: Post-emergence tests/outdoors (Example C, Canada). The format is in vivo. To be noted: outdoors, 70 WP, 5 tests. The procedure:
as §1

Data set [7] concerns weeds, such as Alopecurus, Avena, Bromus, Digitaria, Echinochloa, Matricaria, Polygonum and Setaria. Put plainly: Pre-emergence test/greenhouse, summary over weeds. The format is in vivo. To be noted: cf. Table A1. The procedure:
Pre-Emergence Test/Greenhouse Solvent: 5 parts by weight of acetone Emulsifier: 1 part by weight of alkylaryl polyglycol ether To produce a suitable preparation of active compound, 1 part by weight of active compound is mixed with the stated amount of solvent, the stated amount of emulsifier is added and the concentrate is diluted with water to the desired concentration. Seeds of the test plants are sown in normal soil. After about 24 hours, the soil is sprayed with the preparation of active compound such that the particular amount of active compound desired is applied per unit area. The concentration of the spray liquor is chosen so that the particular amount of active compound desired is applied in 500 ml of water per hectare. After three weeks, the degree of damage to the plants is assessed in % damage in comparison to the development of the untreated control. […] Table A1). The considerable superiority of (I)-Na-salt over the comparative compound (G) is shown in Table A2 [“ai.”=“active ingredient”].

A further data set has as its system Matricaria. The experiment in a line: Pre-emergence test/greenhouse. To be noted: 30 g of ai./ha, after three weeks. The format is in vivo. The procedure:
as §2

The next data set deals with Digitaria. The experiment in a line: Pre-emergence test/greenhouse. Type of data set: in vivo. To be noted: 30 g of ai./ha, after three weeks. The procedure: as §2
Setting [8] is: 30 g of a.i./ha + SAS (Canplus 411).
[9] abbreviates: 15 g of a.i./ha + SAS (Canplus 411).

On to `CCOc1nn(C(=O)NS(=O)(=O)c2ccccc2OC(F)(F)F)c(=O)n1C` [(B), 2-(2-Trifluoromethoxy-phenylsulphonylaminocarbonyl)-4-methyl-5-ethoxy-2,4-dihydro-3H-1,2,4-triazol-3-one], for which the “Crop damage (wheat)” value in the data set on wheat [1] (setting [8]) is 5%. In addition, in data set [2], the “herbicidal activity (in words, compared with (I)-Na-salt)” value was “considerably weaker herbicidal activity”. Further, the pest or weed control at 30 g/ha is 80% in the data set with Avena and 70% in the data set with Alopecurus [4]. In addition, the “degree of damage, Wheat” value was 50% in the data set with Wheat [3] and 0% in the data set with Wheat [5]. In addition, the “compatibility with crop plants (wheat), in words” value in the data set with Wheat [3] (cf. Table A1) is given as “not compatible with wheat”. Moreover, the “degree of damage, Polygonum” value in the data set with Polygonum stood at 80%. Also, in the data set with Lolium, the “degree of damage, Lolium” value was 70%. Also, the “degree of damage, Veronica” value with Veronica is on record as 70%. Moreover, the pest or weed control at 60 g/ha with Alopecurus [6] is 40%. The “herbicidal effect (%), Avena fatua” value with Avena fatua (setting [8]) was determined as 69%. In addition, in the data set with Fallopia convolvulus (setting [8]), the “herbicidal effect (%), Fallopia convolvulus” value worked out at 71%. In addition, in the data set with Thlaspi arvense (setting [8]), the “herbicidal effect (%), Thlaspi arvense” value was found to be 97%. The “herbicidal effect (%), Sinapis arvensis” value in the data set on Sinapis arvensis (setting [8]) amounted to 97%. Moreover, in the data set on Setaria viridis (setting [8]), the “herbicidal effect (%), Setaria viridis” value was determined as 95%.
As to `COc1nn(C(=O)NS(=O)(=O)c2ccccc2C(F)(F)F)c(=O)n1C` [(D), 2-(2-Trifluoromethyl-phenylsulphonylaminocarbonyl)-4-methyl-5-methoxy-2,4-dihydro-3H-1,2,4-triazol-3-one], the “Crop damage (wheat)” value with wheat [1] (setting [9]) came to 12%. In addition, the “herbicidal activity (in words, compared with (I)-Na-salt)” value in data set [2] and in data set [7] was “considerably weaker herbicidal activity” each time. Moreover, in the data set with Matricaria, the “degree of damage, Matricaria” value came out at 30%. Besides, the pest or weed control at 30 g/ha in the data set on Avena amounted to 50%; with Alopecurus [4], 70%. Besides, the “degree of damage, Wheat” value in the data set on Wheat [3] and in the data set with Wheat [5] was 0% throughout. Also, in the data set with Polygonum, the “degree of damage, Polygonum” value came out at 70%. Also, in the data set on Digitaria, the “degree of damage, Digitaria” value came to 80%. Moreover, the “degree of damage, Veronica” value in the data set on Veronica worked out at 0%. In the data set with Avena fatua (setting [9]), the “herbicidal effect (%), Avena fatua” value was 65%. Besides, the “herbicidal effect (%), Fallopia convolvulus” value in the data set on Fallopia convolvulus (setting [9]) amounted to 70%. The “herbicidal effect (%), Thlaspi arvense” value with Thlaspi arvense (setting [9]) worked out at 95%. Moreover, the “herbicidal effect (%), Sinapis arvensis” value with Sinapis arvensis (setting [9]) is listed as 95%. Also, the “herbicidal effect (%), Setaria viridis” value in the data set with Setaria viridis (setting [9]) was determined as 81%.
